For experiment [1], the target named is T1, c-kit mutant D816V (Homo sapiens, UniProt P10721, D816V/DEL694-753).
T1 construct: residues 551-934, kinase insertion domain residues 694-753 deleted; 6x-histidine (N); made in house; host or cells: E. coli Arctic Express (DE3) RIL (Stratagene)
Briefly: c-Kit mutant D816V biochemical assay, AlphaScreen. The settings on record: c-kit D816V biochemical inhibitory activity; read-out: Biochemical activity (IC50 μM) Kit D816V. The procedure, abridged:
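Purified His-tagged c-Kit D816V (E. coli-expressed) assayed in 25 mM HEPES pH 7.2 with Mg/Mn, 5% DMSO and 10 μM ATP, 30 min at room temperature, 8-point 1:3 dilutions. Phosphorylation detected by AlphaScreen with streptavidin donor and PY20 acceptor beads; IC50 from signal versus concentration.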
Background: Bead proximity is the source of the signal in Alpha formats.

Experiment [2] deals with T2, c-kit kinase (Homo sapiens, UniProt P10721).
T2 construct: The c-kit (or kinase domain thereof) is an active kinase in AlphaScreen; poly-Histidine tag (in-house protein only) (cleaved yes); host or cells: E. coli BL21(DE3)RIL, co-expressed with PTP1B
Briefly: c-Kit biochemical assay, AlphaScreen, 10 μM ATP. The settings on record: c-kit biochemical inhibitory activity; read-out: Biochemical activity (IC50 μM) Kit. The procedure, abridged:
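His-tagged c-Kit expressed in E. coli with co-expressed PTP1B (dephosphorylated), tag removed; 0.1 ng per reaction with biotinylated-peptide substrate in 50 mM HEPES pH 7.2, 5 mM MgCl2, 5 mM MnCl2, 5% DMSO, 10 μM ATP, 1 h at room temperature. Phosphorylation detected by AlphaScreen (streptavidin donor, PY20 acceptor beads); IC50 from 8-point 1:3 dilution series.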

Results on 23 molecules are retold here after patent US10227357B2, “Compounds and methods for kinase modulation, and indications therefor” (Plexxikon Inc., priority 2012, dated 2019).

T1 sequence (P10721 with tags, fused parts or gaps DEL694-753/D816V): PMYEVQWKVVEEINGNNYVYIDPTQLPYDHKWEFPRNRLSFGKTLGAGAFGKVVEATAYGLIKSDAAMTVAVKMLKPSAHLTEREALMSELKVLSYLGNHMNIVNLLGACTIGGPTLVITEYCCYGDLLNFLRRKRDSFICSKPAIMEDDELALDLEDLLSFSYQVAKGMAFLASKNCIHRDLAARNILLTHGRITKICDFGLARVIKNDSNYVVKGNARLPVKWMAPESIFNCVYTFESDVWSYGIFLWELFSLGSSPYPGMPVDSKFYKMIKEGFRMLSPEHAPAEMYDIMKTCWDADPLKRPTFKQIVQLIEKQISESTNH
T2 sequence (P10721 26-976): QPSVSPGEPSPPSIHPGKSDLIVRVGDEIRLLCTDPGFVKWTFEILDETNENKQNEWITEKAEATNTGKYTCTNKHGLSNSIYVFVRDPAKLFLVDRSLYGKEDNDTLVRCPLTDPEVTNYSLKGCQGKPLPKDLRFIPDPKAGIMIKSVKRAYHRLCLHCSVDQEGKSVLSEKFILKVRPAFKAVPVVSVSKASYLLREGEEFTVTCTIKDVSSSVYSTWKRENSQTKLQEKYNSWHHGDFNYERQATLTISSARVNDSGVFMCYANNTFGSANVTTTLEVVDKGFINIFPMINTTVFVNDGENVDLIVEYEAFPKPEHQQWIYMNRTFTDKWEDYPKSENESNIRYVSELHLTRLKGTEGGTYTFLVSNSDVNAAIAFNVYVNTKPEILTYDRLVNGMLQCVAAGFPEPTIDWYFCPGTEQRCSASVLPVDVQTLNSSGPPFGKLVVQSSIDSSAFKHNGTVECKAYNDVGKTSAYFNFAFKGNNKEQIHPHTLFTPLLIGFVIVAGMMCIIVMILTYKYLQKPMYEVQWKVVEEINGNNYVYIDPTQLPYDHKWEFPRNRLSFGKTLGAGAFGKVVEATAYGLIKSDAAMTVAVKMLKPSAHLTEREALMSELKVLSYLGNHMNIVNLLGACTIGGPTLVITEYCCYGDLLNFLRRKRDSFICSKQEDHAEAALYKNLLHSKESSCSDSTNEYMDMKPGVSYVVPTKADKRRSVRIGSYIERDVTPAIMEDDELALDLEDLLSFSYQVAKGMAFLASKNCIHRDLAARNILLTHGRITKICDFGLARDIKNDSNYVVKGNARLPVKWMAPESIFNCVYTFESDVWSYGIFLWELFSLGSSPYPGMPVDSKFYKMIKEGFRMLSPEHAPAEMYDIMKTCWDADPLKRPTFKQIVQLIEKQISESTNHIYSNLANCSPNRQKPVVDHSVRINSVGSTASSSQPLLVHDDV

Take `O=S(=O)(Nc1ccc(-c2ncnc3[nH]c(C4CCCC4)cc23)cc1)c1ccc(F)cc1` [P-0290, N-[4-(6-cyclopentyl-7H-pyrrolo[2,3-d]pyrimidin-4-yl)phenyl]-4-fluoro-benzenesulfonamide]: the IC50 in experiment [1] lay within 0.0001 to 1 µM; in experiment [2] it was 1 to 10 µM.

With `Cc1cc2c(-c3ccc(NS(=O)(=O)c4ccc(C)s4)cc3F)ncnc2[nH]1` [P-0291, N-[3-fluoro-4-(6-methyl-7H-pyrrolo[2,3-d]pyrimidin-4-yl)phenyl]-5-methyl-thiophene-2-sulfonamide], the IC50 lay in the range of 0.0001 to 1 µM in experiment [1] and 1 to 10 µM in experiment [2].

For the molecule `CCc1ccc(S(=O)(=O)Nc2ccc(-c3ncnc4[nH]c(C)cc34)c(F)c2)cc1` [P-0292, 4-ethyl-N-[3-fluoro-4-(6-methyl-7H-pyrrolo[2,3-d]pyrimidin-4-yl)phenyl]benzenesulfonamide], the IC50 in experiment [1] is 0.0001 to 1 µM; in experiment [2] it was 1 to 10 µM.

Take `Cc1ccc(S(=O)(=O)Nc2ccc(-c3ncnc4[nH]c(C)cc34)c(F)c2)cc1` [P-0293, N-[3-fluoro-4-(6-methyl-7H-pyrrolo[2,3-d]pyrimidin-4-yl)phenyl]-4-methyl-benzenesulfonamide]: the IC50 fell in the range of 0.0001 to 1 µM in experiment [1] and 1 to 10 µM in experiment [2].

Take `Cc1cc2c(-c3ccc(NS(=O)(=O)c4ccc5c(c4)OCO5)cc3)ncnc2[nH]1` [P-0294, N-[4-(6-methyl-7H-pyrrolo[2,3-d]pyrimidin-4-yl)phenyl]-1,3-benzodioxole-5-sulfonamide]: the half-inhibitory concentration (IC50) fell in the range of 0.0001 to 1 µM in experiment [1] and 10 to 200 µM in experiment [2].

For `CC1(C)C=C(c2cc3c(-c4ccc(NS(=O)(=O)c5ccc(F)cc5)cc4)ncnc3[nH]2)CC(C)(C)N1` [P-0295, 4-fluoro-N-[4-[6-(2,2,6,6-tetramethyl-1,3-dihydropyridin-4-yl)-7H-pyrrolo[2,3-d]pyrimidin-4-yl]phenyl]benzenesulfonamide], the IC50 in experiment [1] lay within 0.0001 to 1 µM; in experiment [2], 1 to 10 µM.

`O=S(=O)(Nc1ccc(-c2ncnc3[nH]c(C4=CCCC4)cc23)cc1)c1ccc(F)cc1` [P-0296, N-[4-[6-(cyclopenten-1-yl)-7H-pyrrolo[2,3-d]pyrimidin-4-yl]phenyl]-4-fluoro-benzenesulfonamide]: the IC50 in experiment [1] fell in the range of 0.0001 to 1 µM; in experiment [2], 1 to 10 µM.

With `Cc1cc2c(-c3ccc(NS(=O)(=O)c4ccc(C(F)(F)F)nc4)cc3)ncnc2[nH]1` [P-0297, N-[4-(6-methyl-7H-pyrrolo[2,3-d]pyrimidin-4-yl)phenyl]-6-(trifluoromethyl)pyridine-3-sulfonamide], the IC50 is 1 to 10 µM in experiment [1] and 10 to 200 µM in experiment [2].

Take `CC1(C)C=C(c2cc3c(-c4ccc(NS(=O)(=O)c5ccc(F)cc5)cc4)ncnc3[nH]2)CC(C)(C)O1` [P-0298, 4-fluoro-N-[4-[6-(2,2,6,6-tetramethyl-3H-pyran-4-yl)-7H-pyrrolo[2,3-d]pyrimidin-4-yl]phenyl]benzenesulfonamide]: the IC50 is 1 to 10 µM in experiment [1] and 10 to 200 µM in experiment [2].

For the molecule `Cc1cc2c(-c3ccc(NS(=O)(=O)c4cc(Cl)c(Cl)s4)cc3)ncnc2[nH]1` [P-0299, 4,5-dichloro-N-[4-(6-methyl-7H-pyrrolo[2,3-d]pyrimidin-4-yl)phenyl]thiophene-2-sulfonamide], the half-inhibitory concentration (IC50) in experiment [1] and in experiment [2] was 1 to 10 µM each time.

With `Cc1cc2c(-c3ccc(NS(=O)(=O)c4sc(C)nc4C)cc3)ncnc2[nH]1` [P-0300, 2,4-dimethyl-N-[4-(6-methyl-7H-pyrrolo[2,3-d]pyrimidin-4-yl)phenyl]thiazole-5-sulfonamide], the half-inhibitory concentration (IC50) fell in the range of 1 to 10 µM in experiment [1] and 10 to 200 µM in experiment [2].

On to `Cc1ccc(S(=O)(=O)Nc2ccc(-c3ncnc4[nH]c(C)cc34)cc2)cn1` [P-0301, 6-methyl-N-[4-(6-methyl-7H-pyrrolo[2,3-d]pyrimidin-4-yl)phenyl]pyridine-3-sulfonamide], for which the results for the half-maximal inhibitory concentration (IC50) in experiment [1] and in experiment [2] were 0.0001 to 1 µM and 1 to 10 µM, respectively.

In the case of `Cc1cc2c(-c3ccc(NS(=O)(=O)c4ccc5c(c4)CCC5)cc3)ncnc2[nH]1` [P-0302, N-[4-(6-methyl-7H-pyrrolo[2,3-d]pyrimidin-4-yl)phenyl]indane-5-sulfonamide], the IC50 in experiment [1] is 0.0001 to 1 µM; in experiment [2], 10 to 200 µM.

Regarding `Cc1cc2c(-c3ccc(NS(=O)(=O)c4ccc5oncc5c4)cc3)ncnc2[nH]1` [P-0303, N-[4-(6-methyl-7H-pyrrolo[2,3-d]pyrimidin-4-yl)phenyl]-1,2-benzoxazole-5-sulfonamide], the IC50 in experiment [1] and in experiment [2] was 10 to 200 µM each time.

With `Cc1cc2c(-c3ccc(NS(=O)(=O)c4cc(Cl)cs4)cc3)ncnc2[nH]1` [P-0304, 4-chloro-N-[4-(6-methyl-7H-pyrrolo[2,3-d]pyrimidin-4-yl)phenyl]thiophene-2-sulfonamide], the IC50 lay in the range of 1 to 10 µM in experiment [1] and 0.0001 to 1 µM in experiment [2].

As for `Cc1csc(S(=O)(=O)Nc2ccc(-c3ncnc4[nH]c(C)cc34)cc2)c1` [P-0305, 4-methyl-N-[4-(6-methyl-7H-pyrrolo[2,3-d]pyrimidin-4-yl)phenyl]thiophene-2-sulfonamide], the values for the IC50 in experiment [1] and in experiment [2] were 1 to 10 µM and 0.0001 to 1 µM, respectively.

`Cc1cc2c(-c3ccc(NS(=O)(=O)c4ccc5c(c4)CCO5)cc3)ncnc2[nH]1` [P-0307, N-[4-(6-methyl-7H-pyrrolo[2,3-d]pyrimidin-4-yl)phenyl]-2,3-dihydrobenzofuran-5-sulfonamide]: the figures for the IC50 in experiment [1] and in experiment [2] were 1 to 10 µM and 10 to 200 µM, respectively.

With `Cc1ccc2sc(S(=O)(=O)Nc3ccc(-c4ncnc5[nH]c(C)cc45)cc3)cc2c1` [P-0308, 5-methyl-N-[4-(6-methyl-7H-pyrrolo[2,3-d]pyrimidin-4-yl)phenyl]benzothiophene-2-sulfonamide], the figures for the IC50 in experiment [1] and in experiment [2] were 1 to 10 µM and 10 to 200 µM, respectively.

In the case of `Cc1cc2c(-c3ccc(NS(=O)(=O)c4cc5ccccc5s4)cc3)ncnc2[nH]1` [P-0309, N-[4-(6-methyl-7H-pyrrolo[2,3-d]pyrimidin-4-yl)phenyl]benzothiophene-2-sulfonamide], the IC50 in experiment [1] and in experiment [2] was 1 to 10 µM in each case.

On to `Cc1cc2c(-c3ccc(NS(=O)(=O)c4ccc(OC(C)C)cc4)cc3)ncnc2[nH]1` [P-0311, 4-isopropoxy-N-[4-(6-methyl-7H-pyrrolo[2,3-d]pyrimidin-4-yl)phenyl]benzenesulfonamide], for which the IC50 in experiment [1] and in experiment [2] was 10 to 200 µM throughout.

Regarding `Cc1cc2c(-c3ccc(NS(=O)(=O)c4ccc(C)s4)cc3)ncnc2[nH]1` [P-0313, 5-methyl-N-[4-(6-methyl-7H-pyrrolo[2,3-d]pyrimidin-4-yl)phenyl]thiophene-2-sulfonamide], the IC50 in experiment [1] and in experiment [2] was 1 to 10 µM in each case.

For `Cc1cc2c(-c3ccc(NS(=O)(=O)c4ccc(F)c(F)c4)cc3)ncnc2[nH]1` [P-0314, 3,4-difluoro-N-[4-(6-methyl-7H-pyrrolo[2,3-d]pyrimidin-4-yl)phenyl]benzenesulfonamide], the figures for the IC50 in experiment [1] and in experiment [2] were 1 to 10 µM and 10 to 200 µM, respectively.

`CCc1ccc(S(=O)(=O)Nc2ccc(-c3ncnc4[nH]c(C)cc34)cc2)cc1` [P-0315, 4-ethyl-N-[4-(6-methyl-7H-pyrrolo[2,3-d]pyrimidin-4-yl)phenyl]benzenesulfonamide]: the results for the IC50 in experiment [1] and in experiment [2] were 0.0001 to 1 µM and 1 to 10 µM, respectively.

What is called IC50 is the midpoint of a concentration-inhibition curve.
